Read-outs that look alike come from different tables or passages of the source.
Legend:
[1] = system: fibrin-induced microglia activation; test: Image-based assay of fibrin-induced microglia activation (HTS and dose response); assay type: cell-based, rat; conditions: for inhibition at 10 µM: Rattus norvegicus, Microglia, read-out: Fibrin % inhibition
[2] = system: LPS-induced microglia activation; test: Image-based assay of LPS-induced microglia activation (HTS and dose response); assay type: cell-based, rat; conditions: for inhibition at 10 µM: Rattus norvegicus, Microglia, read-out: LPS % inhibition
[3] = system: fibrin- and LPS-induced microglia activation; test: cells; assay type: cell-based, rat
[4] = system: primary rat microglia;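 as to Fibrin % cell toxicity: share of dead cells sized under 150 µm2 at 10 µM in fibrin-stimulated microglia HTS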
[5] = system: primary rat microglia; remark: listed apart in the source;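 as to Fibrin % cell toxicity: share of dead cells sized under 150 µm2 at 10 µM in fibrin-stimulated microglia HTS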
[6] = primary microglia HTS, fibrin stimulation, activation = cell size >800 μm2
[7] = 48 h, primary microglia HTS, LPS stimulation, activation = cell size >800 μm2
[8] = quadrant by fibrin and LPS inhibition in HTS of 1907 compounds
[9] = primary microglia HTS, fibrin stimulation, increased cell size (>800 μm^2) as marker of activation
[10] = 48 h, primary microglia HTS, LPS stimulation, increased cell size (>800 μm^2) as marker of activation
[11] = primary microglia HTS, LPS stimulation, activation = cell size >800 μm2

| SMILES | Fibrin % cell toxicity ([4]; rat) | LPS % cell toxicity ([5]; rat) | inhibition at 10 µM [1, 6] | inhibition at 10 µM [2, 7] | Quadrant (FIG. 5b) [3, 8] | inhibition at 10 µM [1] | inhibition at 10 µM ([2]; 48 h) | Quadrant (FIG. 5b) [3] | other results |
| --- | --- | --- | --- | --- | --- | --- | --- | --- | --- |
| CC12CCC(CC1)C(C)(C)O2 [Eucalyptol] | 0% | 0% |  |  |  |  |  |  | inhibition at 10 µM ([1]; primary microglia HTS, fibrin stimulation, compounds at 10 μM): -15%; inhibition at 10 µM ([2]; primary microglia HTS, LPS stimulation, compounds at 10 μM): 9%; Quadrant (FIG. 5b) ([3]; classification by fibrin and LPS inhibition, HTS at 10 μM): Q4 |
| CC(Cc1ccc(O)cc1)NCC(O)c1cc(O)cc(O)c1 (stereo not shown) [Fenoterol] | 0% | 0% | 40% | 26% | Q4 |  |  |  |  |
| OC(Cn1cncn1)(Cn1cncn1)c1ccc(F)cc1F [Fluconazole] | 0% | 0% |  |  |  | 3% | 19% | Q4 |  |
| CCOC(=O)c1ncn2c1CN(C)C(=O)c1cc(F)ccc1-2 [Flumazenil] | 1% | 1% | 5% | 14% | Q4 |  |  |  |  |
| C[C@@H]1C[C@H]2[C@@H]3C[C@H](F)C4=CC(=O)C=C[C@]4(C)[C@@]3(F)[C@@H](O)C[C@]2(C)[C@@]1(O)C(=O)COC(=O)C(C)(C)C [Flumethazone pivalate, reference compound] |  |  |  |  |  |  |  | Q2 | Fibrin % inhibition [1]: 101%; Fibrin Selectivity [1]: 4; Fibrin Selectivity (LOG10) [1]: 0.58; fib specificity [1]: 1.0; fib_HS [1]: −0.23; IC50 ([1]; read-out: Fibrin IC50): < 0.001 µM; IC50 ([1]; read-out: Fibrin IC50 (uM) (Suppl. Table 7)): < 0.001 µM; LPS % inhibition [2]: 94%; LPS specificity [2]: 1.0; LPS_HS [2]: 0.00; IC50 ([2]; read-out: LPS IC50): 0.004 µM; IC50 ([2]; read-out: LPS IC50 (uM) (Suppl. Table 7)): 0.004 µM; Activity [3]: fib/LPS; Cherry-picked Hit (Suppl. Table 7) [3]: HIT (key: HIT: Hits were defined as molecules that exhibited greater than 50% inhibition of either fibrin or LPS activation); Hit [3]: HIT (key: HIT: Hits were defined as molecules that exhibited greater than 50% inhibition of either fibrin or LPS activation); Fibrin % cell toxicity [4]: 1%; IC50 [4]: > 20000 nM; IC50 [5]: > 20000 nM; LPS % cell toxicity [5]: 3% |
| Fc1ccc(C(c2ccc(F)cc2)N2CCN(C/C=C/c3ccccc3)CC2)cc1 [Flunarizine] | 1% | 1% |  |  |  | -10% | 12% | Q4 |  |
| OCCN1CCN(CCCN2c3ccccc3Sc3ccc(C(F)(F)F)cc32)CC1 [Fluphenazine] | 1% | 0% |  |  |  | 7% | 20% | Q4 |  |
| CC(C)C(=O)Nc1ccc([N+](=O)[O-])c(C(F)(F)F)c1 [Flutamide] | 1% | 0% | 15% | 23% | Q4 |  |  |  |  |
| COc1ccc(CC(C)NCC(O)c2ccc(O)c(NC=O)c2)cc1 (stereo not shown) [Formoterol] | 1% | 1% |  |  |  | -6% | 32% | Q4 |  |
| O=C(O)/C=C/C(=O)O [Fumaric Acid] | 1% | 0% |  |  |  | 19% | 17% | Q4 |  |
| CN(C)c1ccc(C(=C2C=CC(=[N+](C)C)C=C2)c2ccc(N(C)C)cc2)cc1 [Gentian Violet] | 38% | 73% |  |  | Q2 |  |  |  | inhibition at 10 µM [1, 9]: 117%; inhibition at 10 µM [2, 10]: 118% |
| O=C(OCC(O)CO)c1ccccc1Nc1ccnc2cc(Cl)ccc12 (stereo not shown) [Glafenine] | 1% | 0% | 8% | 18% | Q4 |  |  |  |  |
| CCC1=C(C)CN(C(=O)NCCc2ccc(S(=O)(=O)NC(=O)N[C@H]3CC[C@H](C)CC3)cc2)C1=O [Glimepiride] | 1% | 0% | 0% | 21% | Q4 |  |  |  |  |
| N[C@@H](CCC(=O)N[C@@H](CS)C(=O)NCC(=O)O)C(=O)O [Glutathione] | 1% | 0% |  |  |  | -5% | 13% | Q4 |  |
| COC1=CC(=O)C[C@@H](C)[C@]12Oc1c(Cl)c(OC)cc(OC)c1C2=O [Griseofulvin] | 1% | 0% | 9% | 13% | Q4 |  |  |  |  |
| O=C(CCCN1CCC(O)(c2ccc(Cl)cc2)CC1)c1ccc(F)cc1 [Haloperidol] | 1% | 1% |  |  |  | -22% | 12% | Q4 |  |

| SMILES | Fibrin % cell toxicity ([4]; rat) | LPS % cell toxicity ([5]; rat) | inhibition at 10 µM [1, 6] | inhibition at 10 µM [2, 7] | Quadrant (FIG. 5b) [3, 8] | inhibition at 10 µM [1] | inhibition at 10 µM ([2]; 48 h) | Quadrant (FIG. 5b) [3] | other results |
| --- | --- | --- | --- | --- | --- | --- | --- | --- | --- |
| FC(F)(F)C(Cl)Br (stereo not shown) [Halothane] | 1% | 0% | 17% | 17% | Q4 |  |  |  |  |
| CC1CC(OC(=O)c2ccccc2O)CC(C)(C)C1 (stereo not shown) [Homosalate] | 1% | 1% | -3% | 18% | Q4 |  |  |  |  |
| NNc1nncc2ccccc12 [Hydralazine] | 1% | 0% |  |  |  | -13% | 22% | Q4 |  |
| Oc1ccc(O)cc1 [Hydroquinone] | 1% | 0% |  |  |  | 14% | 12% | Q4 |  |
| CC(=O)[C@]1(O)Cc2c(O)c3c(c(O)c2[C@@H](O[C@H]2C[C@H](N)[C@H](O)[C@H](C)O2)C1)C(=O)c1ccccc1C3=O.Cl [Idarubicin, Idarubicin Hydrochloride] |  |  |  |  | Q2 |  |  |  | Fibrin % inhibition [1, 9]: 106%; LPS % inhibition ([2]; primary microglia HTS, LPS stimulation, increased cell size (>800 μm^2) as marker of activation): 106%; Fibrin % cell toxicity [4]: 90%; LPS % cell toxicity [5]: 40% |
| COC1=C(OC)C(=O)C(CCCCCCCCCCO)=C(C)C1=O [Idebenone] | 1% | 0% | -24% | 2% | Q4 |  |  |  |  |
| CC(C)(C)NC(=O)[C@@H]1CN(Cc2cccnc2)CCN1C[C@@H](O)C[C@@H](Cc1ccccc1)C(=O)N[C@H]1c2ccccc2C[C@H]1O [Indinavir] | 1% | 0% | -22% | 5% |  |  |  | Q4 |  |
| COc1ccc2c(c1)c(CC(=O)O)c(C)n2C(=O)c1ccc(Cl)cc1 [Indomethacin] | 0% | 0% | -56% | 13% | Q4 |  |  |  |  |
| O=C(NCC(O)CO)c1c(I)c(C(=O)NCC(O)CO)c(I)c(N(CCO)C(=O)CO)c1I (stereo not shown) [Ioversol] | 1% | 1% |  |  |  | -1% | 18% | Q4 |  |
| CC(C)NNC(=O)c1ccncc1 [Iproniazid] | 1% | 0% | -44% | 10% | Q4 |  |  |  |  |
| CC(C)NCC(O)c1ccc(O)c(O)c1 (stereo not shown) [Isoprenaline] | 0% | 0% | 29% | 37% | Q4 |  |  |  |  |
| CC1=C(/C=C/C(C)=C/C=C/C(C)=C\C(=O)O)C(C)(C)CCC1 [Isotretinoin] | 13% | 1% |  |  | Q2 |  |  |  | inhibition at 10 µM [1, 9]: 112%; inhibition at 10 µM [2, 10]: 55% |
| NC[C@H]1O[C@H](O[C@H]2[C@H](O)[C@@H](O[C@H]3O[C@H](CO)[C@@H](O)[C@H](N)[C@H]3O)[C@H](N)C[C@@H]2N)[C@H](O)[C@@H](O)[C@@H]1O.O=S(=O)(O)O [Kanamycin Sulfate, Kanamycin A Sulfate] |  |  |  |  |  |  |  | Q4 | Fibrin % inhibition [1]: −13%; LPS % inhibition [2]: 20%; Fibrin % cell toxicity [4]: 0%; LPS % cell toxicity [5]: 1% |
| CC(=O)N1CCN(c2ccc(OCC3COC(Cn4ccnc4)(c4ccc(Cl)cc4Cl)O3)cc2)CC1 (stereo not shown) [Ketoconazole] | 0% | 0% |  |  |  | -57% | -1% | Q4 |  |
| N[C@@H](CC(=O)O)C(=O)O [L-aspartic Acid, Aspartic Acid (I)] |  |  |  |  | Q4 |  |  |  | Fibrin % inhibition [1, 6]: 5%; LPS % inhibition [2, 11]: 13%; Fibrin % cell toxicity [4]: 1%; LPS % cell toxicity [5]: 1% |
| NC(=O)CC[C@H](N)C(=O)O [L-glutamine, Glutamine (I)] |  |  |  |  | Q4 |  |  |  | Fibrin % inhibition [1, 6]: 4%; LPS % inhibition [2, 11]: 14%; Fibrin % cell toxicity [4]: 0%; LPS % cell toxicity [5]: 0% |

Source: patent US20210330611A1, “THERAPY FOR NEUROLOGICAL DISEASES/DISORDERS” (priority 2020, published 2021)
